Measurements from patent US20230024119A1, “COMBINED USE OF SODIUM TRANS-[TETRACHLORIDOBIS(1H-INDAZOLE)RUTHENATE(III)] AND ETOMOXIR FOR TREATING CANCERS” (Bold Therapeutics, Inc., priority 2019, published 2023).

Assays:
sensitive HCT116 cells = test system: sensitive HCT116 cells
Protocol: (§1) (also referred to herein as KP1339 or BOLD-100 or IT139). […] Lipid storage compartments (lipid droplets) were visualized fluorescently with Bodipy 493/503. Utilizing specific pharmacological inhibitors, the role of altered lipid metabolism components in KP1339 resistance was dissected. Mitochondrial oxygen consumption rate (OCR) and extracellular acidification rate (ECAR) were assessed by Seahorse XF analysis. Lipidomics and consecutive proteomics analysis were used to further characterize the resistance phenotype.

KP1339-resistant cells = settings: upon KP1339 treatment
Protocol: as §1

[1] = test system: HCT116 and Capan1 cell models with acquired KP1339 resistance; assay: Sensitivity of KP1339-resistant cell models to lipid-modulating agents; type: cell-based
Protocol: as §1

[Cl][Ru]([Cl])([Cl])[Cl].[Na+].c1ccc2[nH]ncc2c1.c1ccc2[nH]ncc2c1 [KP1339, Sodium trans-[tetrachloridobis(1H-indazole)ruthenate(III)]]
amount of Compound A present in the lyophilized product (cooling the solution during the formulation process): greatly reduce the amount of Compound A | degradation in water (in water): can degrade in water to Compound A | extracellular acidification rate (ECAR) (sensitive HCT116 cells; Seahorse Mito Stress Test, sensitive HCT116 cells): massively reduced ECAR | mitochondrial oxygen consumption rate (OCR) (sensitive HCT116 cells; upon KP1339 treatment, parental cells): reduced in parental | mitochondrial oxygen consumption rate (OCR) (KP1339-resistant cells): stayed unchanged in resistant cells

CCCCCCCCCCC[C@@H](C[C@@H]1OC(=O)[C@H]1CCCCCC)OC(=O)[C@H](CC(C)C)NC=O [orlistat]
sensitivity towards lipid-modulating agents [1]: hypersensitive

CCC/C=C/C/C=C/C=C/C=N/NN=O [triacsin C]
sensitivity towards lipid-modulating agents [1]: hypersensitive
